Consider 2 compounds from patent US20050032646A1, “Agents for the regulation of gametophytic self-incompatibility and a control method for the breakdown of gametophytic self-incompatibility using the agents” (priority 2002, published 2005).

Structures are written as SMILES. Bounds are passed on as bounds.

For data set [1], the system named is Safinia purple. As to the kind of experiment: Breakdown of self-incompatibility and seed production of Safinia purple. It counts as in vivo, Safinia purple (petunia). As to the method:
To establish the application method of the SI suppressing agent for the seed production, a field experiment was performed with Safinia purple ( the Solanaceae, a petunia developed by Suntory Ltd).
To a 15 cm-radii round pot, were added fine soil (pH 5.6) and 2 gr of complex fertilizer (including N, P, K 8% each) and they were mixed well. Safinia purple of 10 cm height were planted and raised in a green house for 2 weeks. At the period of 30 % bloom the diluted aqueous solutions of Zn(II) propionate or Cu(II) propionate agent were micro-sprayed enough to wet a flower and a style(3 ml). Two days after treatment of the agent, self-pollen was pollinated to its own style and the seed production was investigated. The experiments were repeated twice.

Data set [2] concerns Hongro apple flowers. As to the kind of experiment: Side-effect of the agents toward Hongro apple flowers. The format is in vivo. Set-up: key: 0: no side-effect is observed, and it is same as no treatment of the agents; 1: the side-effect are observed in flowers, but they recover to normal fruition in a week; 2: a fall-out of flowers and 10% decrease in fruition rate; 3: about 40% loss; 4: 60% loss; 5: a severe loss in fruition. As to the method:
To investigate the side-effect of the agent, various concentrations of the agents were treated to the flowers of Hongro apple.

For data set [3], the system named is style-specific S RNase of Fuji apple. As to the kind of experiment: Inhibition of the activity of a style-specific S RNase by the agents. Conditions: optical density at 260 nm (A260), agent 2.0 mM, no treatment 1.10. The format is biochemical. How it is done: Inhibition of S RNase activity by an agent of the present invention was measured as follows: The standard solution of 500 μL of 10 mM sodium phosphate (pH 7.0) with an agent (2.0 mM), and 500 μL of torula yeast rRNA (5 mg/mL) was pre-incubated for 10 min at 37° C. To the substrate solution, the 20 μL of the style-specific S RNase (200 ng) of Fuji apple was added, then the solution was incubated for 30 min at 37° C. A fraction of 200 μL was collected and 40 μL of stop buffer (ice-cold 25% HCIO4, 0.75% uranyl acetate) was added, then mixed and centrifuged at 12,000 rpm for 5 min. And 50 μL of the supernatant was diluted with 950 μL of dd H2O, then the solution was centrifuged and measured the optical density at 260 nm (A260) (Singh A. et al., Plant Physilolgy, 96: 61-68,1991).

For data set [4], the system named is 20-Century pear. As to the kind of experiment: Breakdown of the self-incompatibility in 20-century pear (fertilization rate, field). The format is in vivo. Conditions: 600 μM, sprayed 5 and 2 days before full bloom, 14 days after the treatment. How it is done:
In a field test, 20-Century pear (the Rosaceae) which has self-incompatibility system was isolated single-genetically by covering up selected branches or whole plants with a fine-meshed net to exclude any pollinating insects. The aqueous of 600 μM solution of an agent of the present invention was treated enough to get-wet flowers with a micro-spray at 9:00-11:00 AM. The agent solution was micro-sprayed 2 times; first at 5 days before full bloom and second at 2 days before full bloom. The reference was artificial cross-pollination at full bloom. The fertilization rate was investigated 14 days after the treatment and compared with no treatment and artificial cross-pollination.

Data set [5] has as its system Hongro apple. As to the kind of experiment: Breakdown of the self-incompatibility in Hongro apple (self-pollination rate, field). The format is in vivo. Conditions: 25 days after the treatment. How it is done:
In the field application experiment, Hongro apple (the Rosaceae) which has a very low self-pollination rate (<5%) was isolated single-genetically by covering up whole plants with a fine-meshed net to exclude any pollinating insects. The agent of the present invention was treated enough to get-wet flowers at various concentrations with a micro-spray at 9:00-11:00 AM. The target of the agent was the first-blooming primary apple flower. The self-pollination rate was investigated 25 days after the treatment and compared with no treatment and artificial cross-pollination.

Regarding `CCC(=O)[O-].CCC(=O)[O-].[Cu+2]` [Cu(II) Propionate], the “seed production relative (%) to control” value in data set [1] (concn 10 μM) is 485.7%; in data set [1] (concn 30 μM) it was 1714.3%; in data set [1] (concn 100 μM) it was 2228.6%; in data set [1] (concn 300 μM), 1471.4%; in data set [1] (concn 1000 μM), 2342.9%. For the same compound, the “self-pollination pollination ratio (%)” value in data set [1] (concn 10 μM) was 47.6%; in data set [1] (concn 30 μM) it was 52.1%; in data set [1] (concn 100 μM) it was 82.6%; in data set [1] (concn 300 μM), 74.3%; in data set [1] (concn 1000 μM), 76.2%. Moreover, the “self-pollination relative (%) to control” value in data set [1] (concn 10 μM) was 2000%; in data set [1] (concn 30 μM), 2500%; in data set [1] (concn 100 μM), 3800%; in data set [1] (concn 300 μM), 2600%; in data set [1] (concn 1000 μM) it was 3200%. Further, the side-effect index in data set [2] (1.0 mM) was 0; in data set [2] (5.0 mM), 0; in data set [2] (20.0 mM), 1. Besides, the “OD (2.0 mM)” value in data set [3] came to 0.73. For the same compound, the fertilization rate in data set [4] is on record as 53%.
`CCC(=O)[O-].CCC(=O)[O-].[Zn+2]` [Zn(II) Propionate]: the “seed production relative (%) to control” value in data set [1] (concn 10 μM) amounted to 514.3%; in data set [1] (concn 30 μM), 442.9%; in data set [1] (concn 100 μM) it was 1057.1%; in data set [1] (concn 300 μM), 1128.6%; in data set [1] (concn 1000 μM), 1628.6%. For the same compound, the “self-pollination pollination ratio (%)” value in data set [1] (concn 10 μM) is 29.4%; in data set [1] (concn 30 μM), 42.4%; in data set [1] (concn 100 μM), 47.1%; in data set [1] (concn 300 μM) it was 63.6%; in data set [1] (concn 1000 μM), 64.5%. Also, the “self-pollination relative (%) to control” value worked out at 1000% in data set [1] (concn 10 μM); 1400% in data set [1] (concn 30 μM); 1600% in data set [1] (concn 100 μM); 2100% in data set [1] (concn 300 μM); 2000% in data set [1] (concn 1000 μM). Besides, the side-effect index stood at 0 in data set [2] (1.0 mM), 0 in data set [2] (5.0 mM) and 1 in data set [2] (20.0 mM). Moreover, the “OD (2.0 mM)” value in data set [3] is 0.69. The self-pollination rate is greater than 10% in data set [5] (concentration 0.01 mM); greater than 30% in data set [5] (concentration 0.03 mM); greater than 50% in data set [5] (concentration 0.10 mM); greater than 50% in data set [5] (concentration 0.30 mM); greater than 50% in data set [5] (concentration 1.0 mM). This compound displayed a fertilization rate in data set [4] of 45%.
